Data from paper PMC3261785 (Journal of Medicinal Chemistry, 2011).
Entries after “also recorded” stand apart in the source; their conditions may differ.

Molecular target: human A2AAR (Homo sapiens, UniProt P29274)
Test: Radioligand binding assay at A2AAR, membranes of HEK-293 cells, [3H]16
Conditions: comparison within the amino acid conjugate series and with parent 16

Sequence of human A2AAR (P29274 whole entry): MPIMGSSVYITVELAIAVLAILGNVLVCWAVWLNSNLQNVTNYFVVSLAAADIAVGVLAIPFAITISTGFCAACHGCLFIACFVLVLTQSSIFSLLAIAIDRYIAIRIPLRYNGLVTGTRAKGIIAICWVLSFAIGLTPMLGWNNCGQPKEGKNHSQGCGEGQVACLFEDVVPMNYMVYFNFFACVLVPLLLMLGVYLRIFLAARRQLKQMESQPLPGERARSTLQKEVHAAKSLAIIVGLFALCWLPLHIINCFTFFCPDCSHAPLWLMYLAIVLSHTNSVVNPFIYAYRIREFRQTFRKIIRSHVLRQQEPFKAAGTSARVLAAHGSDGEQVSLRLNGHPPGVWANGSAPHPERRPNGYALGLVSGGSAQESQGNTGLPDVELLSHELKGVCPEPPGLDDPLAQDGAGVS

Row | SMILES | Relative A2AAR binding affinity (in words)
1 | CCNC(=O)[C@H]1O[C@@H](n2cnc3c(N)nc(NCCc4ccc(CCC(=O)N[C@H](Cc5ccccc5)C(=O)O)cc4)nc32)[C@H](O)[C@@H]1O [Compound 38] | most potent; also recorded: some gain in affinity
2 | CCNC(=O)[C@H]1O[C@@H](n2cnc3c(N)nc(NCCc4ccc(CCC(=O)N[C@H](Cc5c[nH]cn5)C(=O)O)cc4)nc32)[C@H](O)[C@@H]1O [Compound 42] | most potent; also recorded: some gain in affinity
3 | CCNC(=O)[C@H]1O[C@@H](n2cnc3c(N)nc(NCCc4ccc(CCC(=O)N[C@H](CCCNC(=N)N)C(=O)O)cc4)nc32)[C@H](O)[C@@H]1O [Compound 36] | some gain in affinity
